Values of other authors in patent publication US9687433B2, “Anhydrous depigmenting compositions comprising phenolic compounds” (Ecstasy LLC, priority 2015, dated 2017).

Conditions: degraded to hydroquinone

SMILES: Oc1ccc(OC2CCCCO2)cc1 (stereo not shown) [deoxyarbutin, 4-[(tetrahydro-2H-pyran-2-yl)oxy] phenol]
- stability in aqueous solutions: thermolabile and acid sensitive
